# Experimental data: patent US6251894A, “1-(1,2-disubstituted piperidinyl)-4 (fused imidazole)-piperidine derivatives” (Janssen Pharmaceuticals N.V., priority 1995, dated 2001)
# Where two headings read alike, the source gives them in different places.
# Tests used:
# [1] = test system: Substance P Induced Relaxation of the Pig Coronary Arteries; assay: Antagonism of substance P induced relaxation of the pig coronary arteries; conditions: 30 min incubation
# Experimental: Antagonism of Substance P Induced Relaxation of the Pig Coronary Arteries
# Segments of coronary arteries taken from pigs (killed by injection of an overdose of sodium pentobarbital) were inverted and mounted for recording of isometric tension in organ baths (volume 20 ml) with the endothelium at the outside. The preparations were bathed in Krebs-Henseleit solution. The solution was kept at 37° C. and gassed with a mixture of O2 /CO2 (95/5). After stabilisation of the preparations, prostaglandin F2α (10^-5 M) was administered to induce a contraction. This was repeated until contractile responses became stable. Then prostaglandin F2α was again administered and substance P (3×10^-10 M and 10^-9 M cumulatively) was added. Substance P induced endothelium dependent relaxations. After washing away the agonists, a known concentration of a compound of formula (I) was added. After an incubation period of 30 minutes, prostaglandin F2α (10^-5 M) and the same concentrations of substance P as described above were again administered in the presence of the compound to be tested.
# [2] = test system: Substance P Induced Plasma Extravasation; assay: Antagonism of substance P induced plasma extravasation in guinea-pigs; type: in vivo, guinea-pig; conditions: Cavia porcellus, 1 hour prior to substance P
# Experimental: Antagonism of Substance P Induced Plasma Extravasation in Guinea-pigs
# Plasma travasation was induced by injection of substance P (2 mg/kg) in the femoral artery of female guinea-pigs. Evans Blue dye (30 mg/kg) was injected simultaneously. The test compound or solvent was administered subcutaneous (s.c.) or orally (p.o.) 1 hour prior to substance P injection. 10 minutes after challenge, the animals were checked for blue colouring (a direct measure for plasma extravasation) of the nose, the forepaws, and the conjunctiva. 30 minutes after challenge, the animals were sacrificed by CO2 gas inhalation and checked for blue colouring of the trachea and the urinary bladder. […]
# [3] = test compound concentration 3 × 10^-8 (unit not given)
# [4] = sc, 10 min, s.c., conjunctiva, read-out: lowest active dose (LAD), conjunctiva
# [5] = sc, 10 min, s.c., forepaws, read-out: lowest active dose (LAD), forepaws
# [6] = sc, 10 min, s.c., nose, read-out: lowest active dose (LAD), nose
# [7] = sc, 0.5 h, s.c., trachea, read-out: lowest active dose (LAD), trachea
# [8] = sc, 0.5 h, s.c., urinary bladder, read-out: lowest active dose (LAD), urinary bladder
# [9] = test compound concentration 3 × 10^-9 (unit not given)
# [10] = po, 10 min, p.o., conjunctiva, read-out: lowest active dose (LAD), conjunctiva
# [11] = po, 10 min, p.o., forepaws, read-out: lowest active dose (LAD), forepaws
# [12] = po, 10 min, p.o., nose, read-out: lowest active dose (LAD), nose
# [13] = po, 0.5 h, p.o., trachea, read-out: lowest active dose (LAD), trachea
# [14] = po, 0.5 h, p.o., urinary bladder, read-out: lowest active dose (LAD), urinary bladder
Compound,"% inhibition of the response to 10^-9 M substance P [1, 3] [%]","minimal effective dose [2, 4] [mg/kg]","minimal effective dose [2, 5] [mg/kg]","minimal effective dose [2, 6] [mg/kg]","minimal effective dose [2, 7] [mg/kg]","minimal effective dose [2, 8] [mg/kg]","% inhibition of the response to 10^-9 M substance P [1, 9] [%]","minimal effective dose [2, 10] [mg/kg]","minimal effective dose [2, 11] [mg/kg]","minimal effective dose [2, 12] [mg/kg]","minimal effective dose [2, 13] [mg/kg]","minimal effective dose [2, 14] [mg/kg]"
"Cn1ccc2c1CCn1ccnc1C2=C1CCN([C@@H]2CCN(C(=O)c3cc(C(F)(F)F)cc(C(F)(F)F)c3)[C@@H](Cc3ccccc3)C2)CC1 (racemic) [Compound 2, (±)-trans-1-[3,5-bis(trifluoromethyl)benzoyl]-4-[4-(5,6,7,10-tetrahydro-7-methylimidazo[1,2-a]pyrrolo[3,2-d]azepin-10-ylidene)-1-piperidinyl]-2-(phenylmethyl)piperidine]",96.5,0.16,0.16,0.16,2.5,2.5,,,,,,
"Cn1ccc2c1CCn1ccnc1C2=C1CCN([C@H]2CCN(C(=O)c3cc(C(F)(F)F)cc(C(F)(F)F)c3)[C@@H](Cc3ccccc3)C2)CC1 (racemic) [Compound 3, (±)-cis-1-[3,5-bis(trifluoromethyl)benzoyl]-4-[4-(5,6,7,10-tetrahydro-7-methylimidazo[1,2-a]-pyrrolo[3,2-d]azepin-10-ylidene)-1-piperidinyl]-2-(phenylmethyl)piperidine]",,2.5,2.5,2.5,10,10,37.3,,,,,
"O=C(c1cc(C(F)(F)F)cc(C(F)(F)F)c1)N1CC[C@H](N2CCC(=C3c4ccccc4CCn4c(CO)cnc43)CC2)C[C@@H]1Cc1ccccc1 (racemic) [Compound 4, (±)-cis-1-[3,5-bis(trifluoromethyl)benzoyl]-4-[4-[5,6-dihydro-3-(hydroxymethyl)-11H-imidazo[2,1-b][3]benzazepin-11-ylidene]-1-piperidinyl]-2-(phenylmethyl)piperidine]",97.0,10,10,10,10,10,,,,,,
"O=Cc1cnc2n1CCc1ccccc1C2=C1CCN([C@H]2CCN(C(=O)c3cc(C(F)(F)F)cc(C(F)(F)F)c3)[C@@H](Cc3ccccc3)C2)CC1 (racemic) [Compound 11, (±)-cis-1-[3,5-bis(trifluoromethyl)benzoyl]-4-[4-(3-formyl-5,6-dihydro-11H-imidazo[2,1-b][3]benzazepin-11-ylidene)-1-piperidinyl]-2-(phenylmethyl)piperidine]",,,,,,,96.1,10,10,10,10,10
"COC(=O)c1cnc2n1CCc1ccccc1C2=C1CCN([C@H]2CCN(C(=O)c3cc(C(F)(F)F)cc(C(F)(F)F)c3)[C@@H](Cc3ccccc3)C2)CC1 (racemic) [Compound 17, (±)-methyl cis-11-[1-[1-[3,5-bis(trifluoromethyl)benzoyl]-2-(phenylmethyl)-4-piperidinyl]-4-piperidinylidene]-6,11-dihydro-5H-imidazo[2,1-b][3]benzazepine-3-carboxylate]",,,,,,,35.3,10,10,10,10,10
O=C(c1cc(C(F)(F)F)cc(C(F)(F)F)c1)N1CC[C@@H](N2CCC(=C3c4ccccc4CCn4c(CO)cnc43)CC2)C[C@@H]1Cc1ccccc1 (relative stereo) [Compound 5],,,,,,,100.0,2.5,2.5,2.5,10,10
O=C(c1cc(C(F)(F)F)cc(C(F)(F)F)c1)N1CC[C@@H](N2CCC(=C3c4sccc4CCn4ccnc43)CC2)C[C@@H]1Cc1ccccc1 (relative stereo) [Compound 7],,2.5,10,2.5,10,10,83.1,,,,,
O=Cc1cnc2n1CCc1ccccc1C2=C1CCN([C@@H]2CCN(C(=O)c3cc(C(F)(F)F)cc(C(F)(F)F)c3)[C@@H](Cc3ccccc3)C2)CC1 (relative stereo) [Compound 16],,2.5,2.5,2.5,10,10,98.9,,,,,
O=C(c1cc(C(F)(F)F)cc(C(F)(F)F)c1)N1CC[C@@H](N2CCC(=C3c4ccsc4CCn4ccnc43)CC2)C[C@H]1Cc1ccccc1 (relative stereo) [Compound 18],,2.5,10,10,10,10,39.8,,,,,
O=C(c1cc(C(F)(F)F)cc(C(F)(F)F)c1)N1CC[C@@H](N2CCC(=C3c4ccsc4CCn4ccnc43)CC2)C[C@@H]1Cc1ccccc1 (relative stereo) [Compound 19],,2.5,2.5,2.5,2.5,10,78.1,,,,,
Cc1cc(C)cc(C(=O)N2CC[C@@H](N3CCC(=C4c5ccccc5CCn5c(CO)cnc54)CC3)C[C@@H]2Cc2ccccc2)c1 (relative stereo) [Compound 20],,2.5,2.5,2.5,2.5,2.5,9.5,,,,,
O=C(c1cc(C(F)(F)F)cc(C(F)(F)F)c1)N1CC[C@@H](N2CCC(=C3c4ccccc4CCn4ccnc43)CC2)C[C@@H]1Cc1ccccc1 (relative stereo) [Compound 22],,10,10,10,10,10,83.2,,,,,
Cc1cc(C)cc(C(=O)N2CC[C@@H](N3CCC(=C4c5ccccc5CCn5c(C=O)cnc54)CC3)C[C@@H]2Cc2ccccc2)c1 (relative stereo) [Compound 25],,2.5,2.5,2.5,10,10,100.0,,,,,
Cc1cc(C)cc(C(=O)N2CC[C@@H](N3CCC(=C4c5ccn(C)c5CCn5ccnc54)CC3)C[C@@H]2Cc2ccccc2)c1 (relative stereo) [Compound 34],,2.5,0.63,0.63,0.63,0.63,43.5,,,,,
Cc1cc(C)cc(C(=O)N2CC[C@@H](N3CCC(=C4c5sccc5CCn5ccnc54)CC3)C[C@H]2Cc2ccccc2)c1 (relative stereo) [Compound 35],,10,10,10,10,10,27.7,,,,,
Cc1cc(C)cc(C(=O)N2CC[C@H](N3CCC(=C4c5sccc5CCn5ccnc54)CC3)C[C@H]2Cc2ccccc2)c1 (relative stereo) [Compound 37],,2.5,2.5,2.5,10,10,81.9,,,,,
Cc1cc(C)cc(C(=O)N2CC[C@H](N3CCC(=C4c5ccsc5CCn5ccnc54)CC3)C[C@H]2Cc2ccccc2)c1 (relative stereo) [Compound 39],,2.5,2.5,2.5,10,10,42.9,,,,,
Cc1cc(C)cc(C(=O)N2CC[C@H](N3CCC(=C4c5ccccc5CCn5ccnc54)CC3)C[C@H]2Cc2ccccc2)c1 (relative stereo) [Compound 41],,2.5,10,10,10,10,40.6,,,,,
